The results in this text go back to US20050282743A1, “Molecular interactions in cells” (Arbor Vita Corporation, priority 2001, published 2005).

Ends that are not written are not given here. Peptide text beside a SMILES is read from it. * marks the point of attachment. Biotin = O=C1N[C@H]2[C@H](CS[C@H]2CCCCC(=O)*)N1

In experiment [1] the target is T1, PDZ protein (GST-PDZ fusion) (Homo sapiens, UniProt Q02410).
T1 construct: made in house; host or cells: E. coli (DH5alpha, BL21 or JM109)
T1 sequence (Q02410 1-837): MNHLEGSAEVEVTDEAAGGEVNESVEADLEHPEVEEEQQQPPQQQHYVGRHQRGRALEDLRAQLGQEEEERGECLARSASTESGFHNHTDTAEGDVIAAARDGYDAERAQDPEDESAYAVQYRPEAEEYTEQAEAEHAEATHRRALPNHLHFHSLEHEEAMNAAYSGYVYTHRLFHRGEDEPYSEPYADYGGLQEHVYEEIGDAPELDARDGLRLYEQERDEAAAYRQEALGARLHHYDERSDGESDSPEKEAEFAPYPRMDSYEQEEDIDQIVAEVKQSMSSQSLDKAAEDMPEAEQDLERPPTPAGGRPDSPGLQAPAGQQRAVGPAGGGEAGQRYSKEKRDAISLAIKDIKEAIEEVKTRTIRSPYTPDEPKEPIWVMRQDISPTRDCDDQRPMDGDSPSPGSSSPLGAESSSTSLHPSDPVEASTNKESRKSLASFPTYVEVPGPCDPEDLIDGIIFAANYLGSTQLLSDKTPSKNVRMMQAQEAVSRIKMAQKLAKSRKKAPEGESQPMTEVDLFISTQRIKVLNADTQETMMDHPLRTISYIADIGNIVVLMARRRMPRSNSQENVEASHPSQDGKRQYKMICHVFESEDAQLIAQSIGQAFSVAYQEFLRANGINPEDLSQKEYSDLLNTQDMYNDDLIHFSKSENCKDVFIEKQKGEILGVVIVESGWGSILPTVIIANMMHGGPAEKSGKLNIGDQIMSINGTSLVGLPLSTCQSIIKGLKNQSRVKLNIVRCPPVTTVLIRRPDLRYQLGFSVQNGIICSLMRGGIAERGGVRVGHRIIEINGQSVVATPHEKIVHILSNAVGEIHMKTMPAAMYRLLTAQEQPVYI
The experiment can be described thus: G' assay (10 uM PL peptide), results of TABLE 7 and TABLE 12. It counts as binding. Put shortly: (§1)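 Biotinylated PL peptides at 10 uM (vs 20 uM in G^0 assay) bound to GST-PDZ fusions; PDZ protein at 5 ug/ml unless another concentration listed. Bound peptide read as A450 nm, classified 0–5 (0 = A450 0; 5 = A450 >4 repeated).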

In experiment [2] the target is T2, PDZ protein (GST-PDZ fusion) (Homo sapiens, UniProt Q6P0Q8).
T2 construct: made in house; host or cells: E. coli (DH5alpha, BL21 or JM109)
The description is as above. It counts as binding. Put shortly: as §1

The mark [3] stands for this setting: PDZ KIAA807, PDZ Domain not given.

T2 sequence (Q6P0Q8 whole entry, the tested form may be a part): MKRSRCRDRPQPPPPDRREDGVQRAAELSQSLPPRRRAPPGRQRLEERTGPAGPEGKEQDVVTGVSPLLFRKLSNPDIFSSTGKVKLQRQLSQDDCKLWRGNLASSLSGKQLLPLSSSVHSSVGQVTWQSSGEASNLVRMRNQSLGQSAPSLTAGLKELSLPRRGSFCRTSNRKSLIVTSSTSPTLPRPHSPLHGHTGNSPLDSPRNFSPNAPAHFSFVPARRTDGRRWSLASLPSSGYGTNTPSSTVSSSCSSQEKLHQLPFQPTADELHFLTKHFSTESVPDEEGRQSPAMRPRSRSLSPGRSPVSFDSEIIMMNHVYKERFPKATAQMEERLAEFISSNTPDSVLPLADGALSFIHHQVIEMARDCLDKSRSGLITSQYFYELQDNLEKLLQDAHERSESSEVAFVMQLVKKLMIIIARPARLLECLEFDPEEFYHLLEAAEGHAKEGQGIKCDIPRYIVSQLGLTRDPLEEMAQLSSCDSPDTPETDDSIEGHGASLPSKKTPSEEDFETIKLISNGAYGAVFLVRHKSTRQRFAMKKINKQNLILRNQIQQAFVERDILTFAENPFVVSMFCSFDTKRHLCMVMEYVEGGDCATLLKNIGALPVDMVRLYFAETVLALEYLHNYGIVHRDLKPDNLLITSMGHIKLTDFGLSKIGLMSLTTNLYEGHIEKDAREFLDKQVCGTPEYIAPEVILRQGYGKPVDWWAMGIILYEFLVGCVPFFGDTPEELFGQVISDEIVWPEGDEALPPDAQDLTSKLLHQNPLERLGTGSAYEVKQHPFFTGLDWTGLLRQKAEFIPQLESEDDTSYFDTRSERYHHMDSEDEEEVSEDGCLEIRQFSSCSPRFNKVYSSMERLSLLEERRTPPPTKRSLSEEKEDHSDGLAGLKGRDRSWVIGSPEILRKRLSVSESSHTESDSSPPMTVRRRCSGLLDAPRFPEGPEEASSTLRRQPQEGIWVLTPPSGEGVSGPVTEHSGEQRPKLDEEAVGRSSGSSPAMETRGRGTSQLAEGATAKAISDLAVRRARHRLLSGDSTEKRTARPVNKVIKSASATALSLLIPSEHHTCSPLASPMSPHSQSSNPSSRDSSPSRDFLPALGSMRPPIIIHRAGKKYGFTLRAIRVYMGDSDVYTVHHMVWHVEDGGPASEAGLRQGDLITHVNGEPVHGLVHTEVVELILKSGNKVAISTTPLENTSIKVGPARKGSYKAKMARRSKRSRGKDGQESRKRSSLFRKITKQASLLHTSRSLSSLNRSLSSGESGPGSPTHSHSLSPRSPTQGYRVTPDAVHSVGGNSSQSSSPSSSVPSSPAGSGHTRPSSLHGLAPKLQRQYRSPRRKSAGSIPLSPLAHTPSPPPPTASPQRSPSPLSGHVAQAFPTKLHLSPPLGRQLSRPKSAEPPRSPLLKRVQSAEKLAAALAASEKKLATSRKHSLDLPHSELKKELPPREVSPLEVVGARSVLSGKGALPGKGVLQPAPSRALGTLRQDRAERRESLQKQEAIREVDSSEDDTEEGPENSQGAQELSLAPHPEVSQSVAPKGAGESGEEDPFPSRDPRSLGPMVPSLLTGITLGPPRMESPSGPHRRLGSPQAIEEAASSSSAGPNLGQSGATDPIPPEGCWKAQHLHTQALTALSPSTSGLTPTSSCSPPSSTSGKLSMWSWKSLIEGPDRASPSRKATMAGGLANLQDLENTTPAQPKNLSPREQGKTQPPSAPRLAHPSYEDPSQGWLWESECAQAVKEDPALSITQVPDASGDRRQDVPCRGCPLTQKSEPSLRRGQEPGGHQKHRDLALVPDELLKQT

On to “A2AC_HUMAN (Modified) (Biotin-DFRPSFKHILFRRARRGFRQ; not fully specified)”, for which the Classification in experiment [1] (PDZ Mint 1, PDZ Domain 2) is 3 (A450 nm 2-3).
As to “RNIEEVYVGGKQVVPFSSSV (Biotin-RNIEEVYVGGKQVVPFSSSV) [Nedasin (s-form)]”, the Classification in experiment [2] (PDZ KIAA807 (domain not given)) is listed as 2 (A450 nm 1-2); in experiment [1] (PDZ Mint 1, PDZ Domain 1, 2) it was 1 (A450 nm 0-1).
On to TQGFPGPATWRRISSLESEV, for which the Classification in experiment [2] (PDZ KIAA0807(S), PDZ Domain 1) is on record as 5 (A450 nm of 4 more than 2× repeated); in experiment [2] (setting [3]), 4 (A450 nm 3-4); in experiment [1] (PDZ Mint 1, PDZ Domain 1, 2), 1 (A450 nm 0-1); in experiment [1] (PDZ Mint 1, PDZ Domain 2), 1 (A450 nm 0-1).
Take “LNETTETQRTLLNGDLQTSI (Biotin-LNETTETQRTLLNGDLQTSI) [SSTR2 (somatostatin recepor 2)]”: the Classification in experiment [2] (PDZ KIAA0807(S), PDZ Domain 1) is 2 (A450 nm 1-2); in experiment [2] (setting [3]), 2 (A450 nm 1-2); in experiment [1] (PDZ Mint 1, PDZ Domain 1, 2), 1 (A450 nm 0-1); in experiment [1] (PDZ Mint 1, PDZ Domain 2), 1 (A450 nm 0-1).
`CC(C)C[C@H](NC(=O)[C@H](CC(=O)O)NC(=O)[C@H](CO)NC(=O)[C@H](CCC(=O)O)NC(=O)CNC(=O)[C@H](Cc1ccc(O)cc1)NC(=O)[C@H](CC(C)C)NC(=O)[C@H](C)NC(=O)[C@H](CO)NC(=O)[C@H](CO)NC(=O)[C@H](Cc1ccccc1)NC(=O)[C@H](C)NC(=O)[C@H](C)NC(=O)[C@H](Cc1ccc(O)cc1)NC(=O)[C@H](CC(=O)O)NC(=O)[C@H](CC(C)C)NC(=O)[C@H](C)NC(=O)CNC(=O)[C@@H]1CCCN1C(=O)[C@@H](NC(=O)CCCC[C@@H]1SC[C@@H]2NC(=O)N[C@@H]21)C(C)C)C(=O)O` [a-actinin 2] (Biotin-VPGALDYAAFSSALYGESDL-OH; C-terminus assumed): the Classification in experiment [2] (PDZ KIAA0807(S), PDZ Domain 1) is 5 (A450 nm of 4 more than 2× repeated); in experiment [2] (setting [3]), 5 (A450 nm of 4 more than 2× repeated); in experiment [1] (PDZ Mint 1, PDZ Domain 1, 2) it was 1 (A450 nm 0-1); in experiment [1] (PDZ Mint 1, PDZ Domain 2), 1 (A450 nm 0-1).
For the molecule “VHDAESSDEDGYDWGPATDL (Biotin-VHDAESSDEDGYDWGPATDL) [zona occludens 3 (ZO-3)]”, the Classification in experiment [2] (PDZ KIAA0807(S), PDZ Domain 1) is listed as 5 (A450 nm of 4 more than 2× repeated); in experiment [2] (setting [3]), 5 (A450 nm of 4 more than 2× repeated); in experiment [1] (PDZ Mint 1, PDZ Domain 2) it was 2 (A450 nm 1-2).
In the case of `CC[C@H](C)[C@H](NC(=O)[C@H](CO)NC(=O)[C@@H](NC(=O)[C@H](Cc1ccccc1)NC(=O)[C@H](CO)NC(=O)CCCC[C@@H]1SC[C@@H]2NC(=O)N[C@@H]21)[C@@H](C)O)C(=O)N[C@@H](CC(C)C)C(=O)N[C@H](C(=O)N[C@@H](CS)C(=O)N[C@@H](Cc1c[nH]cn1)C(=O)N[C@@H](CCC(N)=O)C(=O)N[C@@H](CCCNC(=N)N)C(=O)N[C@@H](CCCNC(=N)N)C(=O)N[C@H](C(=O)N[C@@H](CCC(N)=O)C(=O)N[C@@H](CCCNC(=N)N)C(=O)N[C@@H](CCCCN)C(=O)N[C@@H](CCC(=O)O)C(=O)N[C@H](C(=O)N[C@H](C(=O)N[C@@H](C)C(=O)O)C(C)C)[C@@H](C)O)[C@@H](C)O)[C@@H](C)O` [GluR5-2 (rat)], the Classification in experiment [2] (PDZ KIAA0807(S), PDZ Domain 1) was 1 (A450 nm 0-1).
“KTMPAATYRLLTGQEQPVYL (Biotin-KTMPAATYRLLTGQEQPVYL) [MINT-3]”: the Classification in experiment [2] (PDZ KIAA0807(S), PDZ Domain 1) is listed as 1 (A450 nm 0-1); in experiment [2] (setting [3]), 1 (A450 nm 0-1); in experiment [1] (PDZ Mint 1, PDZ Domain 1, 2), 2 (A450 nm 1-2); in experiment [1] (PDZ Mint 1, PDZ Domain 2) it was 2 (A450 nm 1-2).
Turning to `CC(C)C[C@H](NC(=O)[C@H](C)NC(=O)[C@@H](NC(=O)[C@H](CCC(=O)O)NC(=O)[C@H](CCCNC(=N)N)NC(=O)[C@H](CCCNC(=N)N)NC(=O)CNC(=O)[C@H](CCC(N)=O)NC(=O)[C@H](CC(C)C)NC(=O)[C@H](CCCNC(=N)N)NC(=O)CNC(=O)CNC(=O)[C@H](CCCNC(=N)N)NC(=O)[C@H](C)NC(=O)[C@H](CO)NC(=O)[C@H](CCCNC(=N)N)NC(=O)CNC(=O)CNC(=O)[C@H](C)NC(=O)[C@H](C)NC(=O)CCCC[C@@H]1SC[C@@H]2NC(=O)N[C@@H]21)[C@@H](C)O)C(=O)O` [HPV E6 33 (modified)] (Biotin-AAGGRSARGGRLQGRRETAL-OH; C-terminus assumed), the Classification is recorded as 5 (A450 nm of 4 more than 2× repeated) in experiment [2] (PDZ KIAA0807(S), PDZ Domain 1) and 1 (A450 nm 0-1) in experiment [1] (PDZ Mint 1, PDZ Domain 2).
For the molecule “GGGGGSGGGGGSGIESVKI [GLUR2 (glutamate receptor 2-modified)]”, in experiment [2] (PDZ KIAA0807(S), PDZ Domain 1), the Classification is on record as 1 (A450 nm 0-1).
Turning to `CC[C@H](C)[C@H](NC(=O)CNC(=O)[C@H](CO)NC(=O)[C@H](Cc1ccccc1)NC(=O)[C@@H](NC(=O)[C@H](CS)NC(=O)CNC(=O)CNC(=O)[C@H](C)NC(=O)[C@@H]1CCCN1C(=O)[C@@H](NC(=O)[C@@H]1CCCN1C(=O)CCCC[C@@H]1SC[C@@H]2NC(=O)N[C@@H]21)[C@@H](C)CC)[C@@H](C)O)C(=O)N[C@@H](Cc1ccccc1)C(=O)N1CCC[C@H]1C(=O)N[C@H](C(=O)N[C@@H](CC(C)C)C(=O)N[C@H](C(=O)N[C@@H](CO)C(=O)N1CCC[C@H]1C(=O)N[C@@H](CC(C)C)C(=O)O)[C@@H](C)O)[C@@H](C)O` [KIA 1481] (Biotin-PIPAGGCTFSGIFPTLTSPL-OH; C-terminus assumed), the Classification in experiment [2] (PDZ KIAA0807(S), PDZ Domain 1) is 5 (A450 nm of 4 more than 2× repeated); in experiment [2] (setting [3]), 5 (A450 nm of 4 more than 2× repeated); in experiment [1] (PDZ Mint 1, PDZ Domain 1, 2), 3 (A450 nm 2-3); in experiment [1] (PDZ Mint 1, PDZ Domain 2), 3 (A450 nm 2-3).
Take `CC[C@H](C)[C@H](NC(=O)[C@H](CC(=O)O)NC(=O)[C@H](CCC(=O)O)NC(=O)[C@H](CCCNC(=N)N)NC(=O)[C@@H](NC(=O)CCCC[C@@H]1SC[C@@H]2NC(=O)N[C@@H]21)[C@@H](C)O)C(=O)N[C@@H](Cc1ccc(O)cc1)C(=O)N[C@H](C(=O)N[C@@H](CC(N)=O)C(=O)N[C@@H](Cc1ccc(O)cc1)C(=O)N1CCC[C@H]1C(=O)N[C@H](C(=O)N[C@@H](Cc1ccccc1)C(=O)N[C@@H](CO)C(=O)N[C@@H](CCCNC(=N)N)C(=O)N[C@@H](CCCNC(=N)N)C(=O)N1CCC[C@H]1C(=O)N[C@@H](CCCCN)C(=O)N[C@H](C(=O)N[C@@H](CCCNC(=N)N)C(=O)N[C@H](C(=O)O)C(C)C)[C@@H](C)O)[C@@H](C)O)C(C)C` [DNAM-1] (Biotin-TREDIYVNYPTFSRRPKTRV-OH; C-terminus assumed): the Classification in experiment [2] (PDZ KIAA807) was 3 (A450 nm 2-3); in experiment [2] (PDZ KIAA0807(S), PDZ Domain 1), 3 (A450 nm 2-3).
Turning to CKR5_HUMAN (ERASSVYTRSTGEQEISVGL), the Classification in experiment [1] (PDZ Mint 1, PDZ Domain 1, 2) was 1 (A450 nm 0-1).
Take “APC—adenomatous polyposis coli protein (ESSGTQSPKRHSGSYLVTSV)”: the Classification in experiment [2] (PDZ KIAA0807(S), PDZ Domain 1) was 1 (A450 nm 0-1); in experiment [2] (PDZ KIAA807 (domain not given)), 1 (A450 nm 0-1).
`CC(C)C[C@H](NC(=O)[C@H](CCCNC(=N)N)NC(=O)CNC(=O)CNC(=O)[C@H](CCCNC(=N)N)NC(=O)[C@H](C)NC(=O)[C@@H]1CCCN1C(=O)[C@H](CCCNC(=N)N)NC(=O)CNC(=O)CNC(=O)[C@@H](NC(=O)[C@H](C)NC(=O)CCCC[C@@H]1SC[C@@H]2NC(=O)N[C@@H]21)C(C)C)C(=O)N[C@@H](CCC(N)=O)C(=O)NCC(=O)N[C@@H](CCCNC(=N)N)C(=O)N[C@@H](CCCNC(=N)N)C(=O)N[C@@H](CCC(N)=O)C(=O)N[C@H](C(=O)N[C@@H](CCC(N)=O)C(=O)N[C@H](C(=O)O)C(C)C)[C@@H](C)O` [HPV E6 58 (modified)] (Biotin-AVGGRPARGGRLQGRRQTQV-OH; C-terminus assumed): the Classification in experiment [2] (PDZ KIAA0807(S), PDZ Domain 1) is 5 (A450 nm of 4 more than 2× repeated); in experiment [1] (PDZ Mint 1, PDZ Domain 2) it was 1 (A450 nm 0-1).
